Ends that are not written are not given here.
Biological target: T1, thrombin receptor (Homo sapiens, UniProt P25116)
T1 construct: endogenous in cells; host or cells: washed platelets from fresh blood
T1 sequence (P25116 22-425): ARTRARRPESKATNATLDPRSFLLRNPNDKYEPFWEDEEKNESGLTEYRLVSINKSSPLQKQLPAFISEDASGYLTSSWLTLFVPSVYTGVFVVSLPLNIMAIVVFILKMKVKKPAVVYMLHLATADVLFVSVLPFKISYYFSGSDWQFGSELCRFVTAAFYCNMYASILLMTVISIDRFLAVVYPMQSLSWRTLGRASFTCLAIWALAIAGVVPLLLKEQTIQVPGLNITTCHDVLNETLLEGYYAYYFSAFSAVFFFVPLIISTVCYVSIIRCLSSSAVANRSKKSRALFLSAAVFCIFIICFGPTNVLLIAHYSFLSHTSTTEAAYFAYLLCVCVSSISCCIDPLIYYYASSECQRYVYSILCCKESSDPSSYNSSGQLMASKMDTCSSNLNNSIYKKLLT
Experiment: flow cytometry of thrombin receptor epitopes (SPAN12, ATAP138) on α-thrombin activated platelets
Assay type: cell-based
Conditions: peptide 1 mM, α-thrombin 1 nM
Procedure: Flow cytometry studies were performed to determine whether BK analogs prevent α-thrombin from eliminating an epitope on the thrombin receptor which is lost following α-thrombin cleavage- of the receptor. SPAN12 is an antibody to the thrombin receptor on platelets, which is specific for such an epitope. Studies were also performed to determine the effect of BK analogs on an epitope recognized by monoclonal antibody ATAP 138. The antibody is directed to an epitope on the thrombin receptor which is preserved after α-thrombin cleaves the receptor (FIGS. 7A-7D).
Monoclonal antibody SPAN12 was reared to the 12 amino acids, Asn-Ala-Thr-Leu-Asp-Pro-Arg-Ser-Phe-Leu-Leu-Arg (SEQ ID NO:2), that bridge the α-thrombin cleavage site on the thrombin receptor by the methods of Molinot et al., J. Biol. Chem. 270:ln Press, 1995. […]
Mouse IgG and an antibody to the epitope CD62 were used as controls. […] The fluorescence of bound FITC-anti-IgG to platelets was monitored on an Epics-C flow cytometer (Coulter Electronics, Hialeah, Fla.). Light scatter and fluorescence channels were set at logarithmic gain. […] Green fluorescence was observed through a 525 nm band pass filter. The relative fluorescence intensity of at least 15,000 platelets was analyzed in each sample. […]

Sequence: RPPGFSPFR [BK, bradykinin]
- loss of SPAN12 epitope of thrombin receptor on α-thrombin activated platelets: prevents the loss of the epitope
